# How the values were obtained:
# soybean peroxidase [1] = molecular target: T1, soybean peroxidase (Glycine max, UniProt O22443); assay: Chlorination of dimedone to 2-chlorodimedone catalyzed by soybean peroxidase; format: biochemical; settings: for Absorbance Units at 307 nm: pH 2, 120 ppu SBP, 1 mM H2O2, room temperature
# T1 construct: secreted heme glycoprotein, reported 37 kDa
# Protocol: A stock solution (9.5 mM dimedone) was prepared by adding 1 g. 5,5-dimethyl-1,3-cyclohexane dione (dimedone) to […]. The solution was stirred to dissolve the dimedone and the pH adjusted to 2 with HCl. Chlorination of dimedone was catalyzed by soybean peroxidase (120 ppu) at pH 2 and 1 mM H2 O2. Increase in absorbance at 307 nm, corresponding to the absorbance maximum of 2-chlorodimedone was followed at room temperature and is shown in Table 9.
# The effect of temperature on cholrination of dimedone was studied under these conditions. Reactions were performed as described above with increasing assay temperature.
# soybean peroxidase [2] = molecular target: T1, soybean peroxidase; assay: N-demethylation of N,N-dimethylanthranilic acid methyl ester by soybean peroxidase; format: biochemical
# Protocol: N,N-Dimethylanthranilic acid methyl ester (DMA) and the product of N-demethylation, N-methylanthranilic acid methyl ester (NMA), were purchased from TCI America (Portland, Oreg.). […] Using 1 g. (5mM) DMA in 25 mM acetate, pH 4.5, 120 ppu SBP and 1 mM H202, the increases observed were: 295 nm - 0.727 AU per min; 379 nm -0.403 AU per min. To optimize N-demethylation, the effect of pH was studied using 25 mM buffers at the appropriate pH.
# T1 sequence (O22443 27-332): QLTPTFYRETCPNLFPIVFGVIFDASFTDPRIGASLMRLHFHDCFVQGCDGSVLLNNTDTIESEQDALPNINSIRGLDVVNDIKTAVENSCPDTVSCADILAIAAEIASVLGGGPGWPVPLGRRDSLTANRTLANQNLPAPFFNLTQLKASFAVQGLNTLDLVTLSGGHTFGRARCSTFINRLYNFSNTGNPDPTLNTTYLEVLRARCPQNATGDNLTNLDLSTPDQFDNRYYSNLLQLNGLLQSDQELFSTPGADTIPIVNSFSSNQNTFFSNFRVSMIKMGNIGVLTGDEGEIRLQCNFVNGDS
SMILES,"dA per min at 307 nm (soybean peroxidase [1]; 25 °C, pH 2)","dA per min at 307 nm (soybean peroxidase [1]; 35 °C, pH 2)","dA per min at 307 nm (soybean peroxidase [1]; 45 °C, pH 2)","dA per min at 307 nm (soybean peroxidase [1]; 55 °C, pH 2)","dA per min at 307 nm (soybean peroxidase [1]; 65 °C, pH 2)","dA per min at 307 nm (soybean peroxidase [1]; 75 °C, pH 2)",optimal temperature of oxidative chlorination (soybean peroxidase [1]; pH 2),Absorbance Units at 307 nm (soybean peroxidase [1]; time of reaction 0 min) [Absorbance Units],Absorbance Units at 307 nm (soybean peroxidase [1]; time of reaction 1 min) [Absorbance Units],Absorbance Units at 307 nm (soybean peroxidase [1]; time of reaction 2 min) [Absorbance Units],Absorbance Units at 307 nm (soybean peroxidase [1]; time of reaction 3 min) [Absorbance Units],Absorbance Units at 307 nm (soybean peroxidase [1]; time of reaction 7 min) [Absorbance Units],"increase in absorbance at 295 nm (soybean peroxidase [2]; 5mM DMA, 25 mM acetate pH 4.5, 120 ppu SBP, 1 mM H2O2) [AU per min]","dA per min at 379 nm (soybean peroxidase [2]; pH 1, 25 mM buffer)","dA per min at 379 nm (soybean peroxidase [2]; pH 2, 25 mM buffer)","dA per min at 379 nm (soybean peroxidase [2]; pH 3, 25 mM buffer)","dA per min at 379 nm (soybean peroxidase [2]; pH 4, 25 mM buffer)","dA per min at 379 nm (soybean peroxidase [2]; pH 5, 25 mM buffer)","dA per min at 379 nm (soybean peroxidase [2]; pH 6, 25 mM buffer)","dA per min at 379 nm (soybean peroxidase [2]; pH 7, 25 mM buffer)"
"CC1(C)CC(=O)CC(=O)C1 [dimedone, 5,5-dimethyl-1,3-cyclohexane dione]",0.1066,0.1204,0.1962,0.1792,0.0155,0.0181,about 45 °C,0.175,0.275,0.510,0.800,0.868,–,–,–,–,–,–,–,–
"COC(=O)c1ccccc1N(C)C [DMA, N,N-Dimethylanthranilic acid methyl ester]",–,–,–,–,–,–,–,–,–,–,–,–,0.727,0.005,0.2603,0.099,0.181,0.2401,0.1095,0.0065

# Reference: patent publication US5508180A, “Biocatalytic oxidation using soybean peroxidase” (Enzymol International, Inc., priority 1994, dated 1996)
